Structures are written as SMILES. Numbered stars: 1 amine (or outer) side, 2 acyl side, 3 side chain; on linkers, the order of the positions; unused ones are H or OH. Bridge positions count the residues as written; N and C are the ends. Square brackets hold non-standard residues; d marks the D form. Peptide text beside a SMILES is read from it. * marks the point of attachment. ξ: configuration not given here. Bip = N[C@@H](Cc1ccc(-c2ccccc2)cc1)C(=O)O; Phe(3-Me) = Cc1cccc(C[C@H](N)C(=O)O)c1; NMeAEEA = CN(CCOCCOCC(=O)[*:2])[*:1]; hArg = N=C(N)NCCCC[C@H](N)C(=O)O; Cha = N[C@@H](CC1CCCCC1)C(=O)O; Cit = NC(=O)NCCC[C@H](N)C(=O)O; Thr(3ξ) = CC(O)[C@H](N)C(=O)O; 12Ado = NCCCCCCCCCCCC(=O)O; Carboxymethyl = O=C(O)C*; Orn = NCCC[C@H](N)C(=O)O; Aun = NCCCCCCCCCCC(=O)O; Dab = NCC[C@H](N)C(=O)O; AEEA = NCCOCCOCC(=O)O; Sar = CNCC(=O)O

For the assay, the target named is T1, PD-1/PD-L1 interaction (PE-labeled human PD-L1-Ig binding to Jurkat cell line over-expressing human PD-1) (Homo sapiens, UniProt Q15116).
T1 construct: expressed in transfected cells; host or cells: Jurkat
T1 sequence (Q15116 25-288): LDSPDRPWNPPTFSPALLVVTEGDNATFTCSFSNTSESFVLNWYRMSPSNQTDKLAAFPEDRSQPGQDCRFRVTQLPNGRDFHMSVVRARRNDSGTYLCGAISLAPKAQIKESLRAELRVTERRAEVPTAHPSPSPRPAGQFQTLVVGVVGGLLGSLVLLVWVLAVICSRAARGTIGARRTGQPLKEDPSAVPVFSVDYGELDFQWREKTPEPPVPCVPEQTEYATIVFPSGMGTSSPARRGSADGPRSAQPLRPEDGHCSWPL
Nature of the assay: Jurkat-PD-1 Cell Binding High-Content Screening Assay (CBA). The format is cell-based. Conditions: Jurkat cell line over-expressing human PD-1; PE-labeled PD-L1-Ig 20 nM final; read-out: Jurkat hPD1-PDL1 IC50. In a few lines:
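Human PD-L1-Ig carrying a covalent PE label on its Ig tag serves as the probe, applied at 20 nM final to compound-treated (2 h, 37° C) Jurkat-hPD-1 cells in medium with 10% fetal calf serum. After one hour, fixation and nuclear staining precede high-content image analysis.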
For the compound `Cc1cccc(C[C@@H]2NC(=O)[C@H](CC(=O)O)NC(=O)[C@H](Cc3ccc(OCC(=O)O)cc3)NC(=O)[C@H](C(C)O)NC(=O)CSC[C@@H](C(=O)N(C)CCOCCOCC(=O)NCCCCCCCCCCC(=O)O)NC(=O)[C@H](CCCN)NC(=O)[C@H](C(C)C)NC(=O)[C@H](CC3CCCCC3)NC(=O)[C@H](CCN)NC(=O)[C@@H](CC(C)C)NC(=O)[C@H](CCN)NC(=O)[C@H](C(C)C)NC(=O)[C@H](Cc3ccc(-c4ccccc4)cc3)NC(=O)[C@H](C(C)C)NC2=O)c1` (stereo partly drawn) [Compound 3353] ({CH2CO}-[Thr(3ξ)]Y(Carboxymethyl)D[Phe(3-Me)]V[Bip]V[Dab][dL][Dab][Cha]V[Orn]C[NMeAEEA][Aun]-OH; thioether N-14), the IC50 (usually the concentration that gives 50% inhibition) came to 140 nM. For `Cc1cccc(C[C@@H]2NC(=O)[C@H](CC(=O)O)NC(=O)[C@H](Cc3ccc(OCC(=O)O)cc3)NC(=O)[C@H](CCCNC(=N)N)NC(=O)CSC[C@@H](C(=O)N[C@@H](CCN)C(=O)NCCCCCCCCCCC(=O)O)NC(=O)[C@H](C(C)O)NC(=O)[C@H](C(C)C)NC(=O)[C@H](CC3CCCCC3)NC(=O)[C@H](CCN)NC(=O)[C@@H](CC(C)C)NC(=O)[C@H](CCCN)NC(=O)[C@H](CCC(N)=O)NC(=O)[C@H](Cc3ccc(-c4ccccc4)cc3)NC(=O)[C@H](C(C)C)NC2=O)c1` (stereo partly drawn) [Compound 3355] ({CH2CO}-RY(Carboxymethyl)D[Phe(3-Me)]V[Bip]Q[Orn][dL][Dab][Cha]V[Thr(3ξ)]C[Dab][Aun]-OH; thioether N-14), the IC50 turned out to be 8.1 nM. Turning to `Cc1cccc(C[C@@H]2NC(=O)[C@H](CC(=O)O)NC(=O)[C@H](Cc3ccc(OCC(=O)O)cc3)NC(=O)[C@H](CCCNC(=N)N)NC(=O)CSC[C@@H](C(=O)N[C@@H](CCN)C(=O)NCCCCCCCCCCC(=O)O)NC(=O)[C@H](CCCN)NC(=O)[C@H](C(C)C)NC(=O)[C@H](CC3CCCCC3)NC(=O)[C@H](CCN)NC(=O)[C@@H](CC(C)C)NC(=O)[C@H](CCCN)NC(=O)[C@H](CCC(N)=O)NC(=O)[C@H](Cc3ccc(-c4ccccc4)cc3)NC(=O)[C@H](C(C)C)NC2=O)c1` [Compound 3356] ({CH2CO}-RY(Carboxymethyl)D[Phe(3-Me)]V[Bip]Q[Orn][dL][Dab][Cha]V[Orn]C[Dab][Aun]-OH; thioether N-14), the IC50 was 6.8 nM. Turning to `Cc1cccc(C[C@@H]2NC(=O)[C@H](CC(=O)O)NC(=O)[C@H](Cc3ccc(OCC(=O)O)cc3)NC(=O)[C@H](CCCCNC(=N)N)NC(=O)CSC[C@@H](C(=O)N[C@@H](CCN)C(=O)NCCCCCCCCCCC(=O)O)NC(=O)[C@H](CCCN)NC(=O)[C@H](C(C)C)NC(=O)[C@H](CC3CCCCC3)NC(=O)[C@H](CCN)NC(=O)[C@@H](CC(C)C)NC(=O)[C@H](CCN)NC(=O)[C@H](CCC(N)=O)NC(=O)[C@H](Cc3ccc(-c4ccccc4)cc3)NC(=O)[C@H](C(C)C)NC2=O)c1` [Compound 3359] ({CH2CO}-[hArg]Y(Carboxymethyl)D[Phe(3-Me)]V[Bip]Q[Dab][dL][Dab][Cha]V[Orn]C[Dab][Aun]-OH; thioether N-14), the concentration for half-maximal inhibition (IC50) came to 4.3 nM. With `Cc1cccc(C[C@@H]2NC(=O)[C@H](CC(=O)O)NC(=O)[C@H](Cc3ccc(OCC(=O)O)cc3)NC(=O)[C@H](CCCNC(=N)N)NC(=O)CSC[C@@H](C(=O)N[C@@H](CCN)C(=O)NCCCCCCCCCCC(=O)O)NC(=O)[C@H](CCCNC(N)=O)NC(=O)[C@H](C(C)C)NC(=O)[C@H](CC3CCCCC3)NC(=O)[C@H](CCN)NC(=O)[C@@H](CC(C)C)NC(=O)[C@H](CCN)NC(=O)[C@H](C(C)C)NC(=O)[C@H](Cc3ccc(-c4ccccc4)cc3)NC(=O)[C@H](C(C)C)NC2=O)c1` [Compound 3360] ({CH2CO}-RY(Carboxymethyl)D[Phe(3-Me)]V[Bip]V[Dab][dL][Dab][Cha]V[Cit]C[Dab][Aun]-OH; thioether N-14), the IC50 was 8.1 nM.

With `CC(C)C[C@H]1NC(=O)[C@H](CCCN)NC(=O)[C@H](C(C)C)NC(=O)[C@H](Cc2ccc(-c3ccccc3)cc2)NC(=O)[C@H](C(C)C)NC(=O)[C@H](Cc2c[nH]c3ccccc23)NC(=O)[C@H](CC(=O)O)NC(=O)[C@H](Cc2ccc(OCC(=O)O)cc2)NC(=O)[C@H](CCCCNC(=N)N)NC(=O)CSC[C@@H](C(=O)N(C)CC(=O)NCCOCCOCC(=O)N[C@@H](CCCN)C(=O)NCCCCCCCCCCCC(=O)O)NC(=O)[C@H](CO)NC(=O)[C@H](C(C)C)NC(=O)[C@H](CC2CCCCC2)NC(=O)[C@H](CCN)NC1=O` [Compound 3361] ({CH2CO}-[hArg]Y(Carboxymethyl)DWV[Bip]V[Orn][dL][Dab][Cha]VSC[Sar][AEEA][Orn][12Ado]-OH; thioether N-14), the IC50 was found to be 18.7 nM. To `Cc1cccc(C[C@@H]2NC(=O)[C@H](CC(=O)O)NC(=O)[C@H](Cc3ccc(OCC(=O)O)cc3)NC(=O)[C@H](CCCNC(=N)N)NC(=O)CSC[C@@H](C(=O)N[C@@H](CCN)C(=O)NCCCCCCCCCCC(=O)O)NC(=O)[C@H](C(C)O)NC(=O)[C@H](C(C)C)NC(=O)[C@H](CC3CCCCC3)NC(=O)[C@H](CCN)NC(=O)[C@@H](CC(C)C)NC(=O)[C@H](CCC(N)=O)NC(=O)[C@H](Cc3ccc(O)cc3)NC(=O)[C@H](Cc3ccc(-c4ccccc4)cc3)NC(=O)[C@H](Cc3ccc(O)cc3)NC2=O)c1` (stereo partly drawn) [Compound 3370] ({CH2CO}-RY(Carboxymethyl)D[Phe(3-Me)]Y[Bip]YQ[dL][Dab][Cha]V[Thr(3ξ)]C[Dab][Aun]-OH; thioether N-14) belongs 12.6 nM; to `Cc1cccc(C[C@@H]2NC(=O)[C@H](CC(=O)O)NC(=O)[C@H](Cc3ccc(OCC(=O)O)cc3)NC(=O)[C@H](CCCNC(=N)N)NC(=O)CSC[C@@H](C(=O)N[C@@H](CCN)C(=O)NCCCCCCCCCCC(=O)O)NC(=O)[C@H](C(C)O)NC(=O)[C@H](C(C)C)NC(=O)[C@H](CC3CCCCC3)NC(=O)[C@H](CCN)NC(=O)[C@@H](CC(C)C)NC(=O)[C@H](CCCNC(N)=O)NC(=O)[C@H](Cc3ccc(OCC(=O)O)cc3)NC(=O)[C@H](Cc3ccc(-c4ccccc4)cc3)NC(=O)[C@H](Cc3ccc(O)cc3)NC2=O)c1` (stereo partly drawn) [Compound 3371] ({CH2CO}-RY(Carboxymethyl)D[Phe(3-Me)]Y[Bip]Y(Carboxymethyl)[Cit][dL][Dab][Cha]V[Thr(3ξ)]C[Dab][Aun]-OH; thioether N-14), 9.4 nM; to `Cc1cccc(C[C@@H]2NC(=O)[C@H](CC(=O)O)NC(=O)[C@H](Cc3ccc(OCC(=O)O)cc3)NC(=O)[C@H](CCCNC(=N)N)NC(=O)CSC[C@@H](C(=O)N[C@@H](CCN)C(=O)NCCCCCCCCCCC(=O)O)NC(=O)[C@H](CCCNC(N)=O)NC(=O)[C@H](C(C)C)NC(=O)[C@H](CC3CCCCC3)NC(=O)[C@H](CCN)NC(=O)[C@@H](CC(C)C)NC(=O)[C@H](CCC(N)=O)NC(=O)[C@H](Cc3ccc(OCC(=O)O)cc3)NC(=O)[C@H](Cc3ccc(-c4ccccc4)cc3)NC(=O)[C@H](CC(C)C)NC2=O)c1` [Compound 3372] ({CH2CO}-RY(Carboxymethyl)D[Phe(3-Me)]L[Bip]Y(Carboxymethyl)Q[dL][Dab][Cha]V[Cit]C[Dab][Aun]-OH; thioether N-14), 11.6 nM.

Source of the values: patent publication US20260022142A1, “MACROCYCLIC IMMUNOMODULATORS” (Bristol-Myers Squibb Company, priority 2022, published 2026).
